Source: patent US20190290694A1, “STABLY ENGINEREED PROTEASOME INHIBITOR RESISTANT IMMUNE CELLS FOR IMMUNOTHERAPY” (CELLECTIS, priority 2016, published 2019)
pEC50: −log10 of the molar value.

What was measured:
[1] = test system: primary CAR T-cell (CAR anti-CD123); assay: Bortezomib dose response, viability of primary CAR T-cells (CAR anti-CD123) by flow cytometry; format: cell-based, human
From the text: (§1) Peripheral blood mononuclear cells (PBMC) were obtained from healthy volunteer donors as described by Schwartz J. et al. (Guidelines on the use of therapeutic apheresis in clinical practice-evidence-based approach from the Writing Committee of the American Society for Apheresis: the sixth special issue (2013) J Clin Apher. 28(3):145-284).
(§2) To investigate whether bortezomib treatment modify the survival of primary cells, frozen PBMCs were thawed and activated using Dynabeads human T activator CD3/CD28. 3 days after their activation, 1 million cells were transduced using a CD123 CAR (specific for CD123) at a MOI of 5. Cells were then immediately diluted in X-Vivo-15 media supplemented by 20 ng/ml IL-2 and 5% human serum AB and diluted at 1×10^6 cells/ml and kept in culture at 37° C. in the presence of 5% CO2. 7 days later, T cells, CART cells and MOLM13 cells were cultured for 48h in the presence of bortezomib increasing doses of bortezomib ranging from 0 nM to 100 pM. At the end of the culture cell viability was assessed by flow cytometry using a live dead cell marker.
To investigate whether overexpressing POMP, PSMB5 or mutated PSMB5 on CART cells confers resistance to bortezomib treatment, T-cells frozen PBMCs were thawed and activated using Dynabeads human T activator CD3/CD28. […] At the end of the culture cell viability was assessed by flow cytometry using a live dead cell marker.

[2] = test system: CART cells that express mutated PSMB5; assay: Bortezomib dose response, viability of CART cells coexpressing mutated PSMB5; format: cell-based, human; details: CART cells that express mutated PSMB5 as compared to WT CART cells and NT cells, 48h, FIG. 4
Method: (§3) To investigate whether overexpressing POMP, PSMB5 or mutated PSMB5 on CART cells confers resistance to bortezomib treatment, T-cells frozen PBMCs were thawed and activated using Dynabeads human T activator CD3/CD28. 3 days after their activation 1 million T-cells were transduced or not using the CD123 CAR and one of the ORF at a MOI of 5 for both lentiviral particles. Cells were then immediately diluted in X-Vivo-15 media supplemented by 20 ng/ml IL-2 and 5% human serum AB and diluted at 1×10^6 cells/ml and kept in culture at 37° C. in the presence of 5% CO2. 7 days later, T cells, CART cells and MOLM13 cells were cultured for 48h in the presence of increasing doses of bortezomib ranging from 0 to 100 μM. At the end of the culture cell viability was assessed by flow cytometry using a live dead cell marker.

[3] = test system: primary T cell; assay: Bortezomib dose response, viability of primary T cells by flow cytometry (live dead cell marker); format: cell-based; details: Homo sapiens, cultured for 48h with bortezomib, FIG. 1A, read-out: EC50 of Bortezomib (cell depletion / viability)
From the text: as §1
as §2, with “7 days later, T cells, CART cells and MOLM13 cells were cultured for 48h in the presence of bortezomib increasing doses of bortezomib ranging from 0 nM to 100 pM.” left out

[4] = test system: CART cells that express PSMB5; assay: Bortezomib dose response, viability of CART cells coexpressing PSMB5; format: cell-based, human; details: CART cells that express PSMB5 as compared to WT CART cells and NT cells, 48h, FIG. 4
Method: as §3

[5] = test system: MOLM13 cell line; assay: Bortezomib dose response, viability of MOLM13 cells by flow cytometry; format: cell-based; details: Homo sapiens, MOLM-13, cultured for 48h with bortezomib, FIG. 1C, read-out: EC50 of Bortezomib (cell depletion / viability)
Method: as §2, with “7 days later, T cells, CART cells and MOLM13 cells were cultured for 48h in the presence of bortezomib increasing doses of bortezomib ranging from 0 nM to 100 pM.” left out

[6] = test system: GECKO-transduced primary T-cells; assay: Puromycine resistance test of mock- and GECKO-transduced primary T-cells (viability by flow cytometry); format: cell-based, human; set-up: dose or concentration left out as unconfirmed; details: GECKO-transduced versus mock T-cells, 3 days, simultaneous activation/transduction, FIG. 5
Method: Peripheral blood mononuclear cells (PBMC) were obtained from healthy volunteer donors and T-lymphocytes were purified using the EasySep human T-cell enrichment kit (Stemcell Technologies). By contrast with the GECKO protocol described by Shalem et al., primary T-cells were activated and immediately transduced with the viral particles. The T-cells were first mixed with dynabeads (25 uL/10^6 T-cells) in Xvivo-15 media and then plated on 12 well plates coated by 30 ug/mL retronectin per well (iml of retronectin per well incubated 1 hour at 37° C. followed by a washing steps using 1 ml of PBS 2% FBS) in a total volume of 400 μL. The mixture was supplemented by either 200 μL of GECKO lentiviral particles or 200 μL of Xvivo-15 media and incubated 2H at 37° C. and 5% CO2. The mixture was then supplemented by 600 μL of Xvivo-15 media, 10% AB serum and 40 ng/mL IL2 and incubated overnight at 37° C. with 5% CO2. Cells were then washed with 1.5 ml of Xvivo-15 media and resuspended in Xvivo-15 media, 5% AB serum, 20 ng/mL IL-2 in 6 wells plate at 10^6 cells/mL.
3 days post transduction, cells were recovered and used to perform a puromycine resistance test. […] FIG. 2 illustrates the puromycine sensitivity pattern of mock- and GECKO-transduced primary T-cells determined by flow cytometry. […] Cells are then recovered, labeled using EFluor780 dye and analyzed by flow cytometry to determine their viability. […]

pEC50 [5]	SMILES	EC50 of bortezomib, change ([1]; CART cells as compared to non-transduced cells, 48h, FIG. 4)	pEC50 ([1]; Homo sapiens, T-cell, primary CART cells (CD123 CAR), cultured for 48h with bortezomib, FIG. 1B, read-out: EC50 of Bortezomib (cell depletion / viability))	EC50 of bortezomib, change [2]	pEC50 [3]	EC50 of bortezomib, change [4]	puromycine sensitivity (viability frequency) [6]
~8.00	CC(C)C[C@H](NC(=O)[C@H](Cc1ccccc1)NC(=O)c1cnccn1)B(O)O [bortezomib]	increased	~8.00	increased	~8.00	increased	
	COc1ccc(C[C@H](N)C(=O)N[C@H]2[C@@H](O)[C@H](n3cnc4c(N(C)C)ncnc43)O[C@@H]2CO)cc1 [puromycine]						more resistance
